Assay results: ChEMBL document CHEMBL4706702 (Bioorg Med Chem, 2021)
Activity calls are given as the source filed them. The rule behind the calls is not given here.

How the values were obtained:
[1] = molecular target: T1, Mushroom tyrosinase (Agaricus bisporus) (UniProt O42713+Q00024+C7FF04+C7FF05); experiment: Inhibition of mushroom tyrosinase using L-DOPA as substrate at 10 uM preincubated for 20 mins followed by substrate addition and measured after 10 mins relative to control; conditions: time 30.0 min
[2] = molecular target: T1, Mushroom tyrosinase (Agaricus bisporus); experiment: Inhibition of mushroom tyrosinase using L-DOPA as substrate at 0.5 uM preincubated for 20 mins followed by substrate addition and measured after 10 mins relative to control; conditions: time 30.0 min
Mushroom tyrosinase [3] = molecular target: T2, Mushroom tyrosinase (Agaricus bisporus, UniProt O42713+Q00024+C7FF04+C7FF05); experiment: Inhibition of mushroom tyrosinase using L-DOPA as substrate preincubated for 20 mins followed by substrate addition and measured after 10 mins
[4] = Antioxidant activity assessed as inhibition of DPPH radical activity at 100 uM incubated for 20 mins by spectrophotometric method relative to control; assay type: functional
[5] = molecular target: T1, Mushroom tyrosinase (Agaricus bisporus); experiment: Potency index, ratio of kojic acid IC50 to test compound IC50 for inhibition of mushroom tyrosinase using L-DOPA as substrate
Mushroom tyrosinase [6] = molecular target: T2, Mushroom tyrosinase; experiment: Inhibition of mushroom tyrosinase using L-DOPA as substrate preincubated for 10 mins followed by substrate addition and measured after 20 mins
[7] = tested on: O=c1cc(CSc2nc3ccccc3c(=O)n2Cc2ccccn2)occ1O; experiment: Uncompetitive inhibition of mushroom tyrosinase assessed as Km at 0.5 uM using L-DOPA as substrate preincubated for 10 mins followed by substrate addition and measured after 10 mins by Lineweaver-Burk plot analysis (reference value: […] uM); conditions: Agaricus bisporus, time 20.0 min
[8] = tested on: O=c1cc(CSc2nc3ccccc3c(=O)n2Cc2ccccn2)occ1O; experiment: Uncompetitive inhibition of mushroom tyrosinase assessed as Km at 2.5 uM using L-DOPA as substrate preincubated for 10 mins followed by substrate addition and measured after 10 mins by Lineweaver-Burk plot analysis (reference value: […] uM); conditions: Agaricus bisporus, time 20.0 min
[9] = tested on: O=c1cc(CSc2nc3ccccc3c(=O)n2Cc2ccccn2)occ1O; experiment: Uncompetitive inhibition of mushroom tyrosinase assessed as Km at 10 uM using L-DOPA as substrate preincubated for 10 mins followed by substrate addition and measured after 10 mins by Lineweaver-Burk plot analysis (reference value: […] uM); conditions: Agaricus bisporus, time 20.0 min
[10] = tested on: O=c1cc(CSc2nc3ccccc3c(=O)n2Cc2ccccn2)occ1O; experiment: Uncompetitive inhibition of mushroom tyrosinase assessed as Vmax at 0.5 uM using L-DOPA as substrate preincubated for 10 mins followed by substrate addition and measured after 10 mins by Lineweaver-Burk plot analysis (reference value: […] OD/min); conditions: Agaricus bisporus, time 20.0 min
[11] = tested on: O=c1cc(CSc2nc3ccccc3c(=O)n2Cc2ccccn2)occ1O; experiment: Uncompetitive inhibition of mushroom tyrosinase assessed as Vmax at 2.5 uM using L-DOPA as substrate preincubated for 10 mins followed by substrate addition and measured after 10 mins by Lineweaver-Burk plot analysis (reference value: […] OD/min); conditions: Agaricus bisporus, time 20.0 min
[12] = tested on: O=c1cc(CSc2nc3ccccc3c(=O)n2Cc2ccccn2)occ1O; experiment: Uncompetitive inhibition of mushroom tyrosinase assessed as Vmax at 10 uM using L-DOPA as substrate preincubated for 10 mins followed by substrate addition and measured after 10 mins by Lineweaver-Burk plot analysis (reference value: […] OD/min); conditions: Agaricus bisporus, time 20.0 min
[13] = molecular target: T3, Tyrosinase (Mus musculus) (UniProt P11344); experiment: Inhibition of tyrosinase in mouse B16F10 cells assessed melanin level at 8 uM after 24 hrs relative to control; assay type: cell-based; design: scale not given: the % may be the effect or the level left; conditions: B16-F10
T3 sequence (whole entry): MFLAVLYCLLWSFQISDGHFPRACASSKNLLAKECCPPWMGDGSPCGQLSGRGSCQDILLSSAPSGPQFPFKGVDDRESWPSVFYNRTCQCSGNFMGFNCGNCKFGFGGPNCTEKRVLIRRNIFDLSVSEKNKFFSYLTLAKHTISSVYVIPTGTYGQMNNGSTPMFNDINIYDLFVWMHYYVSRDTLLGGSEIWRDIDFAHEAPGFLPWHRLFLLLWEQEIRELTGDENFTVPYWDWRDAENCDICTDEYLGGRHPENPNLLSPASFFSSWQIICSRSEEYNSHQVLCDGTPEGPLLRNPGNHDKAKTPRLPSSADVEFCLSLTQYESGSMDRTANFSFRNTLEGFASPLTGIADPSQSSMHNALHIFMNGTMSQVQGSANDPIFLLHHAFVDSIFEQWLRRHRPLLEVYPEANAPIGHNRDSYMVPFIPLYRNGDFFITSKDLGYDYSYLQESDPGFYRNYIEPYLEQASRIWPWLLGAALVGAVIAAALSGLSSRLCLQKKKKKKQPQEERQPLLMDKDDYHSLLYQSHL

[14] = molecular target: T3, Tyrosinase (Mus musculus); experiment: Inhibition of tyrosinase in mouse B16F10 cells assessed reduction in melanin level at 2 uM after 24 hrs; assay type: cell-based; conditions: B16-F10
B16-F10 [15] = experiment: Cytotoxicity against mouse B16F10 cells assessed as reduction in cell viability at 2 to 4 uM after 48 hrs by MTT assay; assay type: cell-based; conditions: b16-f10, 48 h, dose 2-4 µM
B16-F10 [16] = experiment: Cytotoxicity against mouse B16F10 cells assessed as reduction in cell viability at 8 uM after 48 hrs by MTT assay; assay type: cell-based; conditions: b16-f10, 48 h

Sequence of Mushroom tyrosinase (Agaricus bisporus) (from UniProt O42713+Q00024+C7FF04+C7FF05) (C7FF05 whole entry, looked up): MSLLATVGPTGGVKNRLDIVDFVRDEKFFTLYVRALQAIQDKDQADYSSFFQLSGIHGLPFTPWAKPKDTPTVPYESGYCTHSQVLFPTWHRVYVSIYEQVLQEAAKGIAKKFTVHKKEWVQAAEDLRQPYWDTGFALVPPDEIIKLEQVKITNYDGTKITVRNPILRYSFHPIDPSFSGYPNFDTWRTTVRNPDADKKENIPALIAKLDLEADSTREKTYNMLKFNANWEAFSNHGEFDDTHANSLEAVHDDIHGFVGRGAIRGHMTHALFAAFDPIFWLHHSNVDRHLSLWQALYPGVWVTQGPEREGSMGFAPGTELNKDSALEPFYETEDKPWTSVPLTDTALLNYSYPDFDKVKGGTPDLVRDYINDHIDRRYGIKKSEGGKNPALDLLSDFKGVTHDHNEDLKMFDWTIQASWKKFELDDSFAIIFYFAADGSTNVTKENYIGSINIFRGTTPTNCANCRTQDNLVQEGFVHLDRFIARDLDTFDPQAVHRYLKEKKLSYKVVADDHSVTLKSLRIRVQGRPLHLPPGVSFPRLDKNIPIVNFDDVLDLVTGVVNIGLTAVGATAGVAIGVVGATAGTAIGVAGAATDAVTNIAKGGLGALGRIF
Sequence of Mushroom tyrosinase (Agaricus bisporus) (from UniProt O42713+Q00024+C7FF04+C7FF05) (C7FF04 whole entry, looked up): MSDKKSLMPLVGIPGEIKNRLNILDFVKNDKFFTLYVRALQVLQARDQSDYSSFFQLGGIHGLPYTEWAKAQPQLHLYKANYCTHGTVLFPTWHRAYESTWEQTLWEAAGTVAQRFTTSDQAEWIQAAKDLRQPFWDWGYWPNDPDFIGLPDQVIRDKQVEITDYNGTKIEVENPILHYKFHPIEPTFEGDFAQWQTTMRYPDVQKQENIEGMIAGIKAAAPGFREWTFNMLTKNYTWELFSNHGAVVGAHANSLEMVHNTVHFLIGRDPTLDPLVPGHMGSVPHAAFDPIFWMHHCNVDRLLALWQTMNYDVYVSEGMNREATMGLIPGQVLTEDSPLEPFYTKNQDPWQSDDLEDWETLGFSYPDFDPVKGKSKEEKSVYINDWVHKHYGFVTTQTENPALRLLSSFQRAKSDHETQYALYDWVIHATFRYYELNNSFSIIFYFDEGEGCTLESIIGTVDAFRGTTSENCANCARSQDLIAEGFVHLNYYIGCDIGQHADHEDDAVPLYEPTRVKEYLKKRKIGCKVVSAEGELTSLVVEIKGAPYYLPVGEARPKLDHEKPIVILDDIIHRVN
Sequence of Mushroom tyrosinase (Agaricus bisporus) (from UniProt O42713+Q00024+C7FF04+C7FF05) (Q00024 whole entry, looked up): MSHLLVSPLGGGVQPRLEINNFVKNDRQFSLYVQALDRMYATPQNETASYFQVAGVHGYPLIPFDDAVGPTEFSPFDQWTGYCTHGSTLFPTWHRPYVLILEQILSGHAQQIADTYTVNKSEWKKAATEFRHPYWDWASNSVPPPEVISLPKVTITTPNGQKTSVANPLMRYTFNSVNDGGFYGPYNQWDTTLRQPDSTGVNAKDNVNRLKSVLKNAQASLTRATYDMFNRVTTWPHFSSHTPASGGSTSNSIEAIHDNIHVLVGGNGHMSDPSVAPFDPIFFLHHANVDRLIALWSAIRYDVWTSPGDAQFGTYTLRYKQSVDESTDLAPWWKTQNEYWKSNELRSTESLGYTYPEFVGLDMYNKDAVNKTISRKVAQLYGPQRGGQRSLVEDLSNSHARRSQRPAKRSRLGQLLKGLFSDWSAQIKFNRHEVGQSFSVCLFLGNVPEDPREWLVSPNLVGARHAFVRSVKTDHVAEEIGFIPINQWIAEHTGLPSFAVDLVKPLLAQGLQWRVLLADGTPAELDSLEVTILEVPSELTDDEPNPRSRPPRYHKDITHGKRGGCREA
Sequence of Mushroom tyrosinase (Agaricus bisporus) (from UniProt O42713+Q00024+C7FF04+C7FF05) (O42713 whole entry, looked up): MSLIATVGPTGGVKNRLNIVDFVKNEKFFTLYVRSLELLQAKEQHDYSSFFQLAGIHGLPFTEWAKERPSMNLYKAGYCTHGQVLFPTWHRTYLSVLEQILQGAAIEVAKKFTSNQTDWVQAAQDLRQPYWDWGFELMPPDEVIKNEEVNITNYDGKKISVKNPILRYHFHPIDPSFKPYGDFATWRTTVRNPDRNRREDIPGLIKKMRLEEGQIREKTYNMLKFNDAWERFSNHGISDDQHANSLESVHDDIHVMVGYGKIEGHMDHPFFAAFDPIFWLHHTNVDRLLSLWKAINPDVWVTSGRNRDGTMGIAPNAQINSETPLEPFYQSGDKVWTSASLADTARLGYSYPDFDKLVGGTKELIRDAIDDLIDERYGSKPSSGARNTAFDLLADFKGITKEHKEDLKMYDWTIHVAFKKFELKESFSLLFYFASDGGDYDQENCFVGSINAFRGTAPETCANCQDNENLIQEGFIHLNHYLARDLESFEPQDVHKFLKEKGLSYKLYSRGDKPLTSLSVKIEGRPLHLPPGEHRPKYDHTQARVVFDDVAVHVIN

Work on O=c1cc(CSc2nc3ccccc3c(=O)n2C2CC2)occ1O yielded an inhibition [1] of 82.5%, an inhibition [2] of 23.6% and an IC50 (Mushroom tyrosinase [3]) of 2100 nM. The inhibition [4] was 24.5% and the Ratio IC50 [5] was 4.
With COc1ccc(-n2c(SCc3cc(=O)c(O)co3)nc3ccccc3c2=O)cc1 the inhibition [1] was 83.5%, the inhibition [2] was 22.1% and the IC50 (Mushroom tyrosinase [3]) was 2400 nM. For the same compound, the inhibition [4] was 27.1%.
C=CCn1c(SCc2cc(=O)c(O)co2)nc2ccccc2c1=O showed an inhibition [1] of 92%, an inhibition [2] of 32.4% and an IC50 (Mushroom tyrosinase [3]) of 1560 nM.
CCCn1c(SCc2cc(=O)c(O)co2)nc2ccccc2c1=O gave an inhibition [1] of 90.5%, an inhibition [2] of 24.5% and an IC50 (Mushroom tyrosinase [3]) of 2310 nM. It also gave an inhibition [4] of 22.6%.
With CC(C)n1c(SCc2cc(=O)c(O)co2)nc2ccccc2c1=O the inhibition [1] was 91.2%, the inhibition [2] was 38.6% and the IC50 (Mushroom tyrosinase [3]) was 1440 nM. It also gave an inhibition [4] of 32.6%.
For O=c1cc(CSc2nc3ccccc3c(=O)n2Cc2ccncc2)occ1O, the inhibition [1] was 88.5%, the inhibition [2] was 15.9% and the IC50 (Mushroom tyrosinase [3]) was 2200 nM. For the same compound, the inhibition [4] was 39%.
In the case of COc1cccc(C(=O)NN2C(=O)c3ccccc3NC2c2ccc(F)cc2)c1 (configuration not stated), the IC50 (Mushroom tyrosinase [6]) was 6 nM.
Work on “Mushroom tyrosinase (Agaricus bisporus) (from UniProt O42713+Q00024+C7FF04+C7FF05)” yielded a Km [7] of 1.68 µM, a Km [8] of 1.15 µM and a Km [9] of 0.92 µM. The Vmax (optical density/minute) [10] was 0.27, the Vmax (optical density/minute) [11] was 0.15 and the Vmax (optical density/minute) [12] was 0.081.
For O=c1cc(CSc2nc3ccccc3c(=O)n2-c2ccccn2)occ1O, the Activity [13] was 69%, the inhibition [1] was 90.9% and the inhibition [2] was 50.5%. The IC50 (Mushroom tyrosinase [3]) was 500 nM, the inhibition [4] was 33.8% and the inhibition [14] was “Active”. The Activity (B16-F10 [15]) was “Non-Toxic” and the Activity (B16-F10 [16]) was “Toxic”.
With O=c1cc(CSc2nc3ccccc3c(=O)n2Cc2ccccc2)occ1O the inhibition [1] was 94.1%, the inhibition [2] was 42.5% and the IC50 (Mushroom tyrosinase [3]) was 1420 nM. It also gave an inhibition [4] of 27.9%.
For Cc1ccc(-n2c(SCc3cc(=O)c(O)co3)nc3ccccc3c2=O)cc1, the inhibition [1] was 77.3%, the inhibition [2] was 11.4% and the IC50 (Mushroom tyrosinase [3]) was 5320 nM. For the same compound, the inhibition [4] was 33.3%.
In the case of O=c1cc(CSc2nc3ccccc3c(=O)n2-c2ccccc2)occ1O, the inhibition [1] was 91.7%, the inhibition [2] was 43% and the IC50 (Mushroom tyrosinase [3]) was 1880 nM. For the same compound, the inhibition [4] was 31.4%.
For O=c1cc(CSc2nc3ccccc3c(=O)n2-c2ccc(Br)cc2)occ1O, the inhibition [1] was 71.7%, the inhibition [2] was 40.1% and the IC50 (Mushroom tyrosinase [3]) was 1480 nM. It also gave an inhibition [4] of 33.3%.
In the case of COc1ccc(-n2c(SCc3cc(=O)c(O)co3)nc3ccccc3c2=O)cc1OC, the inhibition [1] was 98.8%, the inhibition [2] was 40.1% and the IC50 (Mushroom tyrosinase [3]) was 2120 nM. It also gave an inhibition [4] of 24.5%.
O=C(Nn1c(-c2ccccc2O)nc2ccccc2c1=O)c1ccco1 gave an IC50 (Mushroom tyrosinase [6]) of 499 nM.
Work on O=c1c(O)c(-c2ccc(O)c(O)c2)oc2cc(O)cc(O)c12 yielded an inhibition [4] of 4.62%.
Work on O=c1cc(CSc2nc3ccccc3c(=O)n2-c2ccc(Cl)cc2)occ1O yielded an inhibition [1] of 94.2%, an inhibition [2] of 49.5% and an IC50 (Mushroom tyrosinase [3]) of 500 nM. For the same compound, the inhibition [4] was 32.6%.
In the case of O=c1cc(CSc2nc3ccccc3c(=O)n2Cc2ccc(F)cc2)occ1O, the inhibition [1] was 92%, the inhibition [2] was 32.4% and the IC50 (Mushroom tyrosinase [3]) was 1560 nM. The inhibition [4] was 32.6%.
Work on O=c1cc(CSc2nc3ccccc3c(=O)n2Cc2ccccn2)occ1O yielded an Activity [13] of 75%, an inhibition [1] of 90.3% and an inhibition [2] of 54.5%. The IC50 (Mushroom tyrosinase [3]) was 460 nM, the inhibition [4] was 42.6% and the inhibition [14] was “Active”. For the same compound, the Activity (B16-F10 [15]) was “Non-Toxic” and the Activity (B16-F10 [16]) was “Toxic”.
